Source: paper PMC11237012, “Synthesis and preliminary evaluation of novel PET probes for GSK-3 imaging” (Scientific Reports, 2024)

What was measured:
[1] = Radiochemical stability in mouse serum (rad-TLC); type: in vitro ADME; details: 37 °C
Description: (§1) The stability of PET probes [^18F]2 and [^18F]6 was measured in isotonic NaCl solution (0.9% NaCl) and mouse and human serums at 37 °C for up to 120 min by rad-TLC at 0 min, 30 min, 60 min and 120 min post incubation. The results obtained are presented in Fig. 5 and SI-Figs. S10–S15, SI-Table S1. […] The plausible explanation of the instability of [^18F]6 could be attributed to the covalent interaction of [^18F]6’s SO2F group with primary amines of amino acid residues present in the protein rich mouse and human serums. In fact, in an unrelated study, Zhao et al. reported formation of sulfonamide bond between sulfuryl fluoride and primary amine of conserved lysine residues of different kinases. […] Based on 2’s favorable blood–brain barrier permeability, nanomolar binding affinity and PET probe [^18F]2’s excellent stability in both mouse and human serums, further in vivo evaluations were performed only with PET probe [^18F]2.
(§2) Stability of [^18F]2 and [^18F]6 was assessed in isotonic NaCl solution and human and mouse serums. To perform this stability assay, 100 µL of [^18F]2 (~ 37.0 MBq) or 100 µL of [^18F]6 (~ 37.0 MBq) as in final formulation was added to 100 µL of human serum or mouse serum in a microcentrifuge tube. The resultant mixture was incubated at 37 °C for 120 min. To assess the radiochemical stability of the probes, a small aliquot (~ 0.5 µL) was taken out from the mixture in triplicate at 0 min, 30 min, 60 min and 120 min during incubation, and analyzed on a rad-TLC using 0.5:9.5 methanol: chloroform as a mobile phase using i-TLC to estimate the stability of [^18F]2 or [^18F]6 at different time points post-incubation. After Stability preparative processes initial i-TLC development was considered as 0 min.

[2] = Radiochemical stability in human serum (rad-TLC); type: in vitro ADME; details: 37 °C
Description: as §1, §2

Measured: Percentage of intact probe

O=C(Nc1cnccc1-c1ccc([18F])cc1)c1ccnc(NC(=O)C2CC2)c1 [[^18F]2]
100 ± 0.0%: [1]; 0 min | [1]; 30 min | [1]; 60 min | [2]; 0 min | [2]; 30 min | [2]; 60 min
